This note sets out measurements from patent publication US9751885B2, “Cyclopropanamine compound and use thereof” (Takeda Pharmaceutical Company Limited, priority 2012, dated 2017).

Data set [1] in a line: Evaluation of hippocampal distribution in mouse. The conditions noted are these: male ICR mice, 10 mg/kg oral; for concentration at 1 h / Kp at 1 h: 1 hr after administration; for Kp at 1 h / Kp at 0.5 h: hippocampus/plasma, read-out: hippocampus/plasma concentration ratio (mean); for concentration at 0.5 h / Kp at 0.5 h: 0.5 hr after administration. Format: in vivo. The method, then:
Evaluation of Hippocampal Distribution in Mouse
(§1) Male ICR mice (hereinafter mice) were acclimated for at least one week in a rearing facility. The mice were raised in a rearing room with controlled temperature and humidity under a 12:12 hour light-dark cycle, and allowed free ingestion of feed and water.
The compounds were suspended in 0.5% methylcellulose/0.02% citric acid/distilled water and orally administered. All compounds were administered to the mice at a dose of 10 mg/kg (body weight).
Blood samples were collected at 0.5 hr, or 1 hr, or 1.5 hr from compound administration, and the hippocampus was isolated simultaneously. The plasma concentration and hippocampus concentration of each test compound were measured by the LC/MS/MS method, the ratio (hippocampus/plasma concentration ratio) was calculated, and distribution into hippocampus was evaluated.

Data set [2] relates to white blood cell number, red blood cell number, platelet number. Nature of the data set: Evaluation of blood cell number in mouse. The class given is in vivo. The conditions noted are these: oral, Day 2 after administration. The method, then:
Evaluation of Blood Cell Number in Mouse
as §1
The compounds were suspended in 0.5% methylcellulose/0.02% citric acid/distilled water and orally administered. All compounds were administered to the mice at a dose of 1 mg/kg, 10 mg/kg, 50 mg/kg or 100 mg/kg (body weight). On Day 2 after the administration of the compound, the whole blood was collected.
Using Sysmex XT-1800i (Sysmex Corporation), the white blood cell number, red blood cell number, and platelet number in the collected whole blood per unit volume were measured. The influence of each compound on each blood cell number was determined by comparing the number with the mean of each blood cell number of the mouse without administration of the compound (control group), and the numerical value of each blood cell number of a mouse with the administration of the compound is shown in percentage. percentage (%) of blood cell number of compound administration group as compared to control group=(mean blood cell number of compound administration group mean blood cell number of compound non-administration group)×100

The mark [3] stands for this setting: hippocampus, read-out: hippocampus concentration (mean).
The mark [4] stands for this setting: plasma, read-out: plasma concentration (mean).

Structures can show the parent of a compound that is named as a salt. Where two headings read alike, the source gives them in different places.

As to `O=C(NC1CCC(F)(F)CC1)c1cccc([C@@H]2C[C@H]2NCC2CC2)c1` (relative stereo) [Example 102, 3-(trans-2-((cyclopropylmethyl)amino)cyclopropyl)-N-(4,4-difluorocyclohexyl)benzamide hydrochloride], in data set [1] (setting [3]), the concentration at 1 h is 482 ng/g. Moreover, the Kp at 1 h in data set [1] amounted to 1.84. Also, the concentration at 1 h in data set [1] (setting [4]) came out at 268 ng/mL. For the same compound, in data set [2] (10 mg/kg), the “platelet number, percentage of compound administration group compared to control group, mean” value (“platelet number, percentage” for short) was determined as 97.7%; the “red blood cell number, percentage of compound administration group compared to control group, mean” value (“red blood cell number, percentage” below) was determined as 99.5%; the “white blood cell number, percentage of compound administration group compared to control group, mean” value (“white blood cell number, percentage” for short) turned out to be 107.0%. In addition, in data set [2] (100 mg/kg), the “platelet number, percentage” value is 94.7%; the “red blood cell number, percentage” value is reported as 104.9%; the “white blood cell number, percentage” value is 116.8%.
With `Cc1cc(NC(=O)c2cccc([C@@H]3C[C@H]3NC3CCOCC3)c2)on1` (relative stereo) [Example 235, N-(3-methyl-1,2-oxazol-5-yl)-3-(trans-2-(tetrahydro-2H-pyran-4-ylamino)cyclopropyl)benzamide hydrochloride], the concentration at 0.5 h in data set [1] (setting [3]) is 216 ng/g. Besides, the Kp at 0.5 h in data set [1] came to 1.04. Also, in data set [1] (setting [4]), the concentration at 0.5 h is 204 ng/mL. In data set [2] (10 mg/kg), the “platelet number, percentage” value was 99.1%; the “red blood cell number, percentage” value is given as 101.1%; the “white blood cell number, percentage” value amounted to 75.7%. In addition, in data set [2] (100 mg/kg), the “platelet number, percentage” value stood at 96.6%; the “red blood cell number, percentage” value turned out to be 97.8%; the “white blood cell number, percentage” value is 93.0%.
Regarding `Cc1nnc(NC(=O)c2cccc([C@@H]3C[C@H]3NC3CCC3)c2)s1` (relative stereo) [Example 174, 3-(trans-2-(cyclobutylamino)cyclopropyl)-N-(5-methyl-1,3,4-thiadiazol-2-yl)benzamide hydrochloride], in data set [1] (setting [3]), the concentration at 1 h came out at 1280 ng/g. The concentration at 1 h in data set [1] (setting [4]) is 1250 ng/mL. In data set [2] (10 mg/kg), the “platelet number, percentage” value stood at 97.9%; the “red blood cell number, percentage” value is listed as 95.4%; the “white blood cell number, percentage” value amounted to 97.4%. Further, in data set [2] (100 mg/kg), the “platelet number, percentage” value was found to be 93.7%; the “red blood cell number, percentage” value is on record as 100.2%; the “white blood cell number, percentage” value was determined as 100.6%.
As for `Cc1nnc(NC(=O)c2cccc([C@@H]3C[C@H]3NC3CCC(F)(F)CC3)c2)s1` (relative stereo) [Example 167, 3-(trans-2-((4,4-difluorocyclohexyl)amino)cyclopropyl)-N-(5-methyl-1,3,4-thiadiazol-2-yl)benzamide hydrochloride], the concentration at 1 h in data set [1] (setting [3]) was 915 ng/g. Besides, the Kp at 1 h in data set [1] was determined as 0.74. Also, the concentration at 1 h in data set [1] (setting [4]) turned out to be 1230 ng/mL. In addition, in data set [2] (10 mg/kg), the “platelet number, percentage” value was 105.3%; the “red blood cell number, percentage” value came to 102.5%; the “white blood cell number, percentage” value stood at 86.4%. In addition, in data set [2] (100 mg/kg), the “platelet number, percentage” value was 103.2%; the “red blood cell number, percentage” value was determined as 102.4%; the “white blood cell number, percentage” value is reported as 68.2%.
As for `O=C(NC1CCOCC1)c1cccc([C@@H]2C[C@H]2NC2CCC(F)(F)CC2)c1` (relative stereo) [Example 178, 3-(trans-2-((4,4-difluorocyclohexyl)amino)cyclopropyl)-N-(tetrahydro-2H-pyran-4-yl)benzamide hydrochloride], the concentration at 0.5 h is 546 ng/g in data set [1] (setting [3]) and 1050 ng/mL in data set [1] (setting [4]). Also, the Kp at 0.5 h in data set [1] came to 0.52. Also, the “platelet number, percentage” value in data set [2] (10 mg/kg) was determined as 90.2%; in data set [2] (100 mg/kg), 85.2%. Also, the “red blood cell number, percentage” value in data set [2] (10 mg/kg) was 98.5%; in data set [2] (100 mg/kg), 98.9%. The “white blood cell number, percentage” value in data set [2] (10 mg/kg) came out at 93.2%; in data set [2] (100 mg/kg), 84.5%.
In the case of `Cc1nnc(NC(=O)c2cccc([C@@H]3C[C@H]3NCC3CCOCC3)c2)s1` (relative stereo) [Example 112, N-(5-methyl-1,3,4-thiadiazol-2-yl)-3-(trans-2-((tetrahydro-2H-pyran-4-ylmethyl)amino)cyclopropyl)benzamide dihydrochloride], the concentration at 0.5 h in data set [1] (setting [3]) turned out to be 614 ng/g. In addition, the Kp at 0.5 h in data set [1] turned out to be 0.36. Besides, in data set [1] (setting [4]), the concentration at 0.5 h came to 1710 ng/mL. Besides, in data set [2] (10 mg/kg), the “platelet number, percentage” value was found to be 92.8%; the “red blood cell number, percentage” value turned out to be 99.4%; the “white blood cell number, percentage” value is 112.0%. In data set [2] (100 mg/kg), the “platelet number, percentage” value came to 86.3%; the “red blood cell number, percentage” value worked out at 102.0%; the “white blood cell number, percentage” value is 136.1%.
`Cn1cc(NC(=O)c2cccc([C@@H]3C[C@H]3NC3CCN(CC(F)(F)F)CC3)c2)cn1` (relative stereo) [Example 171, N-(1-methyl-1H-pyrazol-4-yl)-3-(trans-2-((1-(2,2,2-trifluoroethyl)piperidin-4-yl)amino)cyclopropyl)benzamide trihydrochloride]: the concentration at 0.5 h in data set [1] (setting [3]) was 266 ng/g. For the same compound, in data set [1], the Kp at 0.5 h stood at 0.2. The concentration at 0.5 h in data set [1] (setting [4]) was determined as 1310 ng/mL. Moreover, in data set [2] (10 mg/kg), the “platelet number, percentage” value is recorded as 114.6%; the “red blood cell number, percentage” value stood at 98.5%; the “white blood cell number, percentage” value was 133.3%. Further, in data set [2] (100 mg/kg), the “platelet number, percentage” value is reported as 104.8%; the “red blood cell number, percentage” value came to 98.9%; the “white blood cell number, percentage” value was 133.9%.
For `Cn1cc(NC(=O)c2cccc([C@@H]3C[C@H]3NC3CCC(F)(F)CC3)c2)cn1` (relative stereo) [Example 205, 3-(trans-2-((4,4-difluorocyclohexyl)amino)cyclopropyl)-N-(1-methyl-1H-pyrazol-4-yl)benzamide dihydrochloride], the concentration at 1 h in data set [1] (setting [3]) turned out to be 437 ng/g; in data set [1] (setting [4]), 920 ng/mL. The Kp at 1 h in data set [1] came out at 0.47. Besides, the “platelet number, percentage” value in data set [2] (10 mg/kg) was 114.7%; in data set [2] (100 mg/kg), 110.8%. Also, the “red blood cell number, percentage” value in data set [2] (10 mg/kg) came out at 97.8%; in data set [2] (100 mg/kg) it was 104.0%. Besides, the “white blood cell number, percentage” value was 81.6% in data set [2] (10 mg/kg) and 80.9% in data set [2] (100 mg/kg).
Turning to `O=C(NC1CC(F)(F)C1)c1cc([C@@H]2C[C@H]2NCC2CC2)ccc1F` (relative stereo) [Example 241, 5-(trans-2-((cyclopropylmethyl)amino)cyclopropyl)-N-(3,3-difluorocyclobutyl)-2-fluorobenzamide hydrochloride], the concentration at 0.5 h in data set [1] (setting [3]) was determined as 878 ng/g. In data set [1], the Kp at 0.5 h stood at 5.31. Also, the concentration at 0.5 h in data set [1] (setting [4]) stood at 167 ng/mL. In addition, in data set [2] (10 mg/kg), the “platelet number, percentage” value is 102.6%; the “red blood cell number, percentage” value turned out to be 96.9%; the “white blood cell number, percentage” value was found to be 94.6%. In data set [2] (100 mg/kg), the “platelet number, percentage” value was determined as 89.2%; the “red blood cell number, percentage” value was found to be 99.0%; the “white blood cell number, percentage” value was 101.9%.
